Laboratory results as given in article PMC8284461, “Piperidine-4-Carboxamides Target DNA Gyrase in Mycobacterium abscessus” (Antimicrobial Agents and Chemotherapy, 2021).
Values after ≈ are worked out from the molar mass of the structure shown.

Columns and labels:
[1] = test system: M. abscessus subsp. abscessus ATCC 19977 844-TMF^r-4 (GyrB M474I); experiment: MIC, resistant mutant; type: cell-based, Mycobacterium abscessus; details: Mycobacteroides abscessus, ATCC19977
Kinetic solubility = type: physicochemical
Protocol: Kinetic solubility, parallel artificial membrane permeability assay (PAMPA) permeability, and stability in the mouse liver microsome assay were performed by BioDuro (Shanghai, China) according to standard protocols.

[2] = target: GyrA D91N mutant recombinant M. abscessus DNA gyrase (Mycobacteroides abscessus, UniProt B1ME45+B1ME58, D91N); type: biochemical, Mycobacterium abscessus; details: GyrA D91N mutant DNA gyrase, up to 50 μM
[3] = test system: M. abscessus subsp. abscessus M199; experiment: MIC, broth microdilution; type: cell-based, Mycobacterium abscessus; details: Mycobacteroides abscessus, 72 h, 90% growth inhibition, 3 days
Protocol: (§1) MIC was determined using the broth microdilution method in 96-well plates as described previously ([47]). Briefly, a 10-point 2-fold serial dilution of compounds was performed in 96-well plates (Costar 3370; Corning, USA) starting at twice the desired highest concentration. […] One hundred microliters of the bacterial suspension was seeded onto the 96-well plates containing 100 μl of the serially diluted compounds to give a final volume of 200 μl in each well with the final OD600 of 0.005. The plates were sealed with parafilm, placed onto wet paper towels in a lock-lock box and incubated for 3 days at 37°C with orbital shaking at 90 rpm. […] Absorbance values at day 3 were subtracted from the day 0 readout. Percent growth inhibition was calculated by dividing the absolute absorbance value of treated cells with untreated control and multiplying by 100. CLR was included in all MIC experiments as a positive control to monitor assay reproducibility. MIC was defined as 90% of growth inhibition relative to untreated controls.

[4] = test system: M. abscessus subsp. abscessus K21; experiment: MIC, broth microdilution; type: cell-based, Mycobacterium abscessus; details: Mycobacteroides abscessus, 72 h, 90% growth inhibition, 3 days
Protocol: as §1

[5] = test system: M. abscessus subsp. abscessus M9; experiment: MIC, broth microdilution; type: cell-based, Mycobacterium abscessus; details: Mycobacteroides abscessus, 72 h, 90% growth inhibition, 3 days
Protocol: as §1

[6] = test system: M. abscessus subsp. abscessus M421; experiment: MIC, broth microdilution; type: cell-based, Mycobacterium abscessus; details: Mycobacteroides abscessus, 72 h, 90% growth inhibition, 3 days
Protocol: as §1

[7] = test system: M. abscessus subsp. abscessus Bamboo; experiment: MIC, broth microdilution; type: cell-based, Mycobacterium abscessus; details: Mycobacteroides abscessus, 72 h; abscessus Bamboo wild type; 90% growth inhibition, 3 days
Protocol: as §1

[8] = test system: M. abscessus subsp. abscessus M404; experiment: MIC, broth microdilution; type: cell-based, Mycobacterium abscessus; details: Mycobacteroides abscessus, 72 h, 90% growth inhibition, 3 days
Protocol: as §1

[9] = test system: M. abscessus subsp. bolletii CCUG 50184T; experiment: MIC, broth microdilution; type: cell-based, Mycobacterium abscessus; details: Mycobacteroides abscessus, 72 h, 90% growth inhibition, 3 days
Protocol: as §1

[10] = test system: M. abscessus subsp. massiliense M111; experiment: MIC, broth microdilution; type: cell-based, Mycobacterium abscessus; details: Mycobacteroides abscessus, 72 h, 90% growth inhibition, 3 days
Protocol: as §1

[11] = test system: M. abscessus subsp. abscessus ATCC 19977; experiment: MIC, broth microdilution; type: cell-based, Mycobacterium abscessus; details: Mycobacteroides abscessus, ATCC19977, 72 h; abscessus ATCC 19977 wild type; 90% growth inhibition, 3 days
Protocol: as §1

[12] = test system: M. abscessus subsp. abscessus M337; experiment: MIC, broth microdilution; type: cell-based, Mycobacterium abscessus; details: Mycobacteroides abscessus, 72 h, 90% growth inhibition, 3 days
Protocol: as §1

[13] = test system: M. abscessus subsp. bolletii M506; experiment: MIC, broth microdilution; type: cell-based, Mycobacterium abscessus; details: Mycobacteroides abscessus, 72 h, 90% growth inhibition, 3 days
Protocol: as §1

[14] = test system: M. abscessus subsp. bolletii M232; experiment: MIC, broth microdilution; type: cell-based, Mycobacterium abscessus; details: Mycobacteroides abscessus, 72 h, 90% growth inhibition, 3 days
Protocol: as §1

[15] = test system: M. abscessus subsp. massiliense CCUG 48898T; experiment: MIC, broth microdilution; type: cell-based, Mycobacterium abscessus; details: Mycobacteroides abscessus, 72 h, 90% growth inhibition, 3 days
Protocol: as §1

Plasma stability [16] = type: in vitro ADME, CD-1 mice; details: mouse plasma, 37°C, 1 μg/ml
Protocol: (§2) The plasma stability assays were carried out using plasma from female CD-1 mice, New Zealand white rabbits, rhesus monkeys, and humans containing K2EDTA anticoagulant (Bioreclamation). Stability samples consisted of 5 μl of stock compound solution in 50:50 ACN/water and 95 μl of plasma to a final concentration of 1 μg/ml. The samples were incubated at 37°C with shaking; 10 μl of plasma was removed at each time point and combined with 100 μl of ACN/methanol 50:50 protein precipitation solvent containing internal standard (10 ng/ml verapamil). Chromatography for metabolite identification was performed the same as specified for pharmacokinetic sample analysis. Full scan total ion chromatograms (TIC) of plasma extracts were acquired using a Q Exactive high-resolution mass spectrometer (QE-HRMS) at 70,000 mass resolution. Thermo Fisher Compound Discoverer software was used to assist in identifying the 844-TFM metabolites from the QE-HRMS TIC mass spectrum. Figure S2 in the supplemental material illustrates the extracted ion chromatograms (XIC) of 844-TFM and the metabolites using 5 ppm mass accuracy before and after 12 h of incubation in mouse plasma.

[17] = test system: M. abscessus subsp. abscessus ATCC 19977 MXF^r-1 (GyrA D96Y); experiment: MIC, resistant mutant; type: cell-based, Mycobacterium abscessus; details: Mycobacteroides abscessus, ATCC19977
[18] = test system: M. abscessus subsp. abscessus ATCC 19977; experiment: Time-concentration kill assay, planktonic cultures; type: cell-based, Mycobacterium abscessus; details: 1×, 4×, 8× MIC; CFU after 2 and 3 days
Protocol: At 0, 2, and 3 days, tubes were vortexed, and 20 μl of the cultures was transferred to round-bottom 96-well plates containing 180 μl of phosphate-buffered saline (PBS) (10010023; Thermo Fisher, USA) with 0.025% Tween 80 (PBS/Tween 80) for 10-fold serial dilution. To prevent compound carryover effects, we plated out serially diluted samples onto 7H10 agar supplemented with 0.4% activated charcoal (C9154; Sigma-Aldrich, USA) for all time points as described ([48]). CFU were enumerated after 4 days of incubation at 37°C.

[19] = test system: M. abscessus subsp. abscessus ATCC 19977; experiment: Selection and characterization of spontaneous resistant mutants; type: cell-based, Mycobacterium abscessus; details: ATCC 19977, agar with 8× MIC
Plasma stability [20] = type: in vitro ADME, rhesus monkeys; details: monkey plasma, 37°C, 1 μg/ml
Protocol: as §2

Sequence of GyrA D91N mutant recombinant M. abscessus DNA gyrase (B1ME58 2-839, stated change not applied): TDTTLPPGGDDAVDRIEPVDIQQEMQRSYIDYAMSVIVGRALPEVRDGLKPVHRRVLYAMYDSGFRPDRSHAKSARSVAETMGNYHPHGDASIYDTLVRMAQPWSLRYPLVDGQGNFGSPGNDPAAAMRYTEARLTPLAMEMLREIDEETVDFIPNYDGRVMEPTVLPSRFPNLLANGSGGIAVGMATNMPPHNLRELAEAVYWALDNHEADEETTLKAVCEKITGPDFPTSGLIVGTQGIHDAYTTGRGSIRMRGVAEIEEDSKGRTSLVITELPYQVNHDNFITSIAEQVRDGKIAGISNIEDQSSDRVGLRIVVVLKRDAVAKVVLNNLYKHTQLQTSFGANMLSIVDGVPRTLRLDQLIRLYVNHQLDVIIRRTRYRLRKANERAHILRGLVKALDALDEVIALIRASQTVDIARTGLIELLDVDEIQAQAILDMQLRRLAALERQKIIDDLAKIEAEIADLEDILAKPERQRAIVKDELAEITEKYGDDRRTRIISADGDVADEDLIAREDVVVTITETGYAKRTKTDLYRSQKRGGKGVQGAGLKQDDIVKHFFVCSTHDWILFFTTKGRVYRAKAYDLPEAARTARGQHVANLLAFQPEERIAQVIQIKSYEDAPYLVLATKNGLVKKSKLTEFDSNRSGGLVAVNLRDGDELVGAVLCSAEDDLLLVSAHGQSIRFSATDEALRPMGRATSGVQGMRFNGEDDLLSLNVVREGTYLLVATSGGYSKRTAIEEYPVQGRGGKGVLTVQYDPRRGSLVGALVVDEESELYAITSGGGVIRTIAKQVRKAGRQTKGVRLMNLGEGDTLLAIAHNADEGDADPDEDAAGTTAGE
Sequence of GyrA D91N mutant recombinant M. abscessus DNA gyrase (B1ME45 2-675, stated change not applied): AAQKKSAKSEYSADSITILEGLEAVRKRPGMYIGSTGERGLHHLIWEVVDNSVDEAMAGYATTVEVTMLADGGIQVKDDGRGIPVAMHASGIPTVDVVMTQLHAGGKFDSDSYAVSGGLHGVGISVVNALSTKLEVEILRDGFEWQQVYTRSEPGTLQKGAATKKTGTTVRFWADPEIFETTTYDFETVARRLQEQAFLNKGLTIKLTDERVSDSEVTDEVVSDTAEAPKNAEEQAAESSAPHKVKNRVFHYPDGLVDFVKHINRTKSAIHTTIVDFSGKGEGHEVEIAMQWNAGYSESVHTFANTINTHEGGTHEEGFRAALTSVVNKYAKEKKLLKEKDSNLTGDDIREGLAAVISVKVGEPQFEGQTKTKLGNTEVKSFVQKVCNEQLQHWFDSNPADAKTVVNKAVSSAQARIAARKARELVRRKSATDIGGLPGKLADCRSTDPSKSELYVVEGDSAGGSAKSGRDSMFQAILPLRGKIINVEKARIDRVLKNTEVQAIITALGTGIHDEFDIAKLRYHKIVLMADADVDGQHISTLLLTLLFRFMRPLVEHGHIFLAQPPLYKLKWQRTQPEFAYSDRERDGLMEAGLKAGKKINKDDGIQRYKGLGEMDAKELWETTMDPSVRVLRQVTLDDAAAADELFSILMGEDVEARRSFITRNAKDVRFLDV

SMILES: COc1ccc2nccc(NC(=O)C3CCN(CCc4ccc(C(F)(F)F)cc4)CC3)c2n1 [844-TFM]
- MIC [1]: 6 µM (≈ 2.75 µg/mL)
- solubility (Kinetic solubility; pH 7.4): 390 µM (≈ 179 µg/mL)
- solubility (Kinetic solubility; simulated gastric fluid, pH 2): 446 µM (≈ 205 µg/mL)
- effect on supercoiling activity [2]: No inhibition
- MIC [3]: 6.3 µM (≈ 2.89 µg/mL)
- MIC [4]: 3.5 µM (≈ 1.6 µg/mL)
- MIC [5]: 3.1 µM (≈ 1.42 µg/mL)
- MIC [6]: 1.6 µM (≈ 0.734 µg/mL)
- MIC [7]: 1.5 µM (≈ 0.688 µg/mL)
- MIC [8]: 1.6 µM (≈ 0.734 µg/mL)
- MIC [9]: 2 µM (≈ 0.917 µg/mL)
- MIC [10]: 6.3 µM (≈ 2.89 µg/mL)
- MIC [11]: 1.5 µM (≈ 0.688 µg/mL)
- MIC [12]: 3.1 µM (≈ 1.42 µg/mL)
- MIC [13]: 3.1 µM (≈ 1.42 µg/mL)
- MIC [14]: 1.6 µM (≈ 0.734 µg/mL)
- MIC [15]: 2 µM (≈ 0.917 µg/mL)
- stability in plasma (Plasma stability [16]): rapidly degraded
- MIC [17]: 6 µM (≈ 2.75 µg/mL)
- bactericidal activity in planktonic cultures [18]: bactericidal
- frequency of spontaneous resistance [19]: 10^−8 /CFU
- remaining after 24 h (Plasma stability [20]): approximately 80%
